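Results reflect a 48-hour exposure of cells in 96-well plates to compound at five concentrations. At the GI50, growth is halved. TGI marks complete inhibition of growth.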
Columns and labels:
Assay in all cases: NCI anticancer screen, dose series, 48 h; in the data active means GI50 below about 0.43 µM; inactive means the rest
SK-MEL-5 melanoma = test system: SK-MEL-5 melanoma
HCT-15 colon = test system: HCT-15 colon
TK-10 renal = test system: TK-10 renal
SK-MEL-28 melanoma = test system: SK-MEL-28 melanoma
BT-549 breast = test system: BT-549 breast
MDA-MB-468 breast = test system: MDA-MB-468 breast
HCC-2998 colon = test system: HCC-2998 colon
T-47D breast = test system: T-47D breast
MDA-MB-435 = test system: MDA-MB-435
HS 578T breast = test system: HS 578T breast
MALME-3M melanoma = test system: MALME-3M melanoma
M14 melanoma = test system: M14 melanoma
SW-620 colon = test system: SW-620 colon
HCT-116 colon = test system: HCT-116 colon
OVCAR-5 ovarian = test system: OVCAR-5 ovarian
CAKI-1 renal = test system: CAKI-1 renal
MCF7 breast = test system: MCF7 breast
A498 renal = test system: A498 renal
HOP-62 NSCLC = test system: HOP-62 NSCLC
MOLT-4 leukemia = test system: MOLT-4 leukemia
PC-3 prostate = test system: PC-3 prostate
SR leukemia = test system: SR leukemia
KM12 colon = test system: KM12 colon
OVCAR-3 ovarian = test system: OVCAR-3 ovarian
U251 CNS = test system: U251 CNS
K-562 leukemia = test system: K-562 leukemia
A549 NSCLC = test system: A549 NSCLC
DU-145 prostate = test system: DU-145 prostate
NCI-H23 lung = test system: NCI-H23 lung
OVCAR-8 ovarian = test system: OVCAR-8 ovarian
NCI-H522 lung = test system: NCI-H522 lung
COLO 205 colon = test system: COLO 205 colon
LOX IMVI melanoma = test system: LOX IMVI melanoma
CCRF-CEM leukemia = test system: CCRF-CEM leukemia
SNB-19 CNS = test system: SNB-19 CNS
SF-295 CNS = test system: SF-295 CNS
UO-31 renal = test system: UO-31 renal
SF-268 CNS = test system: SF-268 CNS
SK-MEL-2 melanoma = test system: SK-MEL-2 melanoma
RPMI-8226 leukemia = test system: RPMI-8226 leukemia
SK-OV-3 ovarian = test system: SK-OV-3 ovarian
HOP-92 NSCLC = test system: HOP-92 NSCLC
UACC-62 melanoma = test system: UACC-62 melanoma
OVCAR-4 ovarian = test system: OVCAR-4 ovarian
MDA-MB-231 breast = test system: MDA-MB-231 breast
HT29 colon = test system: HT29 colon
NCI-H226 lung = test system: NCI-H226 lung
HL-60(TB) leukemia = test system: HL-60(TB) leukemia
786-0 renal = test system: 786-0 renal
RXF 393 renal = test system: RXF 393 renal
NCI-H460 lung = test system: NCI-H460 lung
EKVX NSCLC = test system: EKVX NSCLC
SF-539 CNS = test system: SF-539 CNS
ACHN renal = test system: ACHN renal
UACC-257 melanoma = test system: UACC-257 melanoma
SN12C renal = test system: SN12C renal
IGROV1 ovarian = test system: IGROV1 ovarian

Cc1ccc(C(=O)CSc2nc3ccc(F)cc3c(=O)n2-c2ccc(Cl)cc2)cc1
> 100 µM: TGI (SK-MEL-5 melanoma) | TGI (HCT-15 colon) | TGI (TK-10 renal) | TGI (SK-MEL-28 melanoma) | TGI (BT-549 breast) | TGI (MDA-MB-468 breast) | TGI (HCC-2998 colon) | TGI (T-47D breast) | TGI (MDA-MB-435) | TGI (MALME-3M melanoma) | TGI (M14 melanoma) | TGI (SW-620 colon) | TGI (HCT-116 colon) | TGI (OVCAR-5 ovarian) | TGI (MCF7 breast) | TGI (A498 renal) | TGI (MOLT-4 leukemia) | TGI (PC-3 prostate) | TGI (SR leukemia) | TGI (KM12 colon) | TGI (OVCAR-3 ovarian) | TGI (U251 CNS) | TGI (K-562 leukemia) | TGI (A549 NSCLC) | TGI (DU-145 prostate) | TGI (NCI-H23 lung) | TGI (OVCAR-8 ovarian) | TGI (NCI-H522 lung) | TGI (COLO 205 colon) | TGI (LOX IMVI melanoma) | TGI (CCRF-CEM leukemia) | TGI (UO-31 renal) | TGI (SF-268 CNS) | TGI (SK-MEL-2 melanoma) | TGI (RPMI-8226 leukemia) | TGI (SK-OV-3 ovarian) | TGI (UACC-62 melanoma) | TGI (OVCAR-4 ovarian) | TGI (MDA-MB-231 breast) | TGI (HT29 colon) | TGI (HL-60(TB) leukemia) | TGI (786-0 renal) | TGI (NCI-H460 lung) | TGI (EKVX NSCLC) | TGI (ACHN renal) | TGI (UACC-257 melanoma) | TGI (SN12C renal) | TGI (IGROV1 ovarian)
24.9 µM: TGI (NCI-H226 lung)
73.8 µM: TGI (SNB-19 CNS)
inactive: GI50 (SK-MEL-5 melanoma) > 100 µM | GI50 (HCT-15 colon) > 100 µM | GI50 (TK-10 renal) 98.1 µM | GI50 (SK-MEL-28 melanoma) > 100 µM | GI50 (BT-549 breast) 11.2 µM | GI50 (MDA-MB-468 breast) 82.9 µM | GI50 (HCC-2998 colon) > 100 µM | GI50 (T-47D breast) > 100 µM | GI50 (MDA-MB-435) > 100 µM | GI50 (HS 578T breast) 3.41 µM | GI50 (MALME-3M melanoma) 66.7 µM | GI50 (M14 melanoma) > 100 µM | GI50 (SW-620 colon) > 100 µM | GI50 (HCT-116 colon) > 100 µM | GI50 (OVCAR-5 ovarian) > 100 µM | GI50 (CAKI-1 renal) 4.49 µM | GI50 (MCF7 breast) > 100 µM | GI50 (A498 renal) > 100 µM | GI50 (HOP-62 NSCLC) 3.95 µM | GI50 (MOLT-4 leukemia) > 100 µM | GI50 (PC-3 prostate) > 100 µM | GI50 (SR leukemia) > 100 µM | GI50 (KM12 colon) > 100 µM | GI50 (OVCAR-3 ovarian) > 100 µM | GI50 (U251 CNS) 10.8 µM | GI50 (K-562 leukemia) > 100 µM | GI50 (A549 NSCLC) > 100 µM | GI50 (DU-145 prostate) 59.5 µM | GI50 (NCI-H23 lung) > 100 µM | GI50 (OVCAR-8 ovarian) 7.89 µM | GI50 (NCI-H522 lung) > 100 µM | GI50 (COLO 205 colon) > 100 µM | GI50 (LOX IMVI melanoma) 4.04 µM | GI50 (CCRF-CEM leukemia) > 100 µM | GI50 (SNB-19 CNS) 4.93 µM | GI50 (SF-295 CNS) 3.51 µM | GI50 (UO-31 renal) 37 µM | GI50 (SF-268 CNS) 25.3 µM | GI50 (SK-MEL-2 melanoma) > 100 µM | GI50 (RPMI-8226 leukemia) > 100 µM | GI50 (SK-OV-3 ovarian) 39.1 µM | GI50 (HOP-92 NSCLC) 5 µM | GI50 (UACC-62 melanoma) > 100 µM | GI50 (OVCAR-4 ovarian) 9.45 µM | GI50 (MDA-MB-231 breast) 15.1 µM | GI50 (HT29 colon) > 100 µM | GI50 (NCI-H226 lung) 3.13 µM | GI50 (HL-60(TB) leukemia) > 100 µM | GI50 (786-0 renal) 11.1 µM | GI50 (RXF 393 renal) 4.89 µM | GI50 (NCI-H460 lung) 10.3 µM | GI50 (EKVX NSCLC) > 100 µM | GI50 (SF-539 CNS) 5.08 µM | GI50 (ACHN renal) 6.83 µM | GI50 (UACC-257 melanoma) > 100 µM | GI50 (SN12C renal) > 100 µM | GI50 (IGROV1 ovarian) 27.1 µM
32.6 µM: TGI (RXF 393 renal)
21.4 µM: TGI (SF-295 CNS)
50.4 µM: TGI (HOP-62 NSCLC)
86.2 µM: TGI (HS 578T breast)
47.4 µM: TGI (SF-539 CNS)
57.5 µM: TGI (HOP-92 NSCLC)
44.5 µM: TGI (CAKI-1 renal)

— PubChem BioAssay (NCI)
